Results published in patent publication US20090253651A1, “DRUG DELIVERY SYSTEM BASED ON REGIOSELECTIVELY AMIDATED HYALURONIC ACID” (EURAND PHARMACEUTICALS LTD., priority 2006, published 2009).

Tests used:
Type in all cases: cell-based
H460 (lung carcinoma) = assay: Antiproliferative activity, MTT test, H460; details: Homo sapiens, NCI-H460; H460 cells, 5 days treatment, MTT on day 6; read-out: IC50, concentration necessary to reduce the cell growth to 50% of the growth of the control
Protocol: (§1) Antiproliferative activity of the DDS was determined on three lines of carcinoma (HT29: colon rectal carcinoma, H460: lung carcinoma, H460M2: lung metastatic carcinoma which are CPT sensitive. Cells were incubated in 96-well plates for 5 days in complete RPMI1640 Medium (Sigma Chemical Co.) supplemented with 10% FBS (Hyclone Europe), 2 mM L-glutamine (Hyclone Europe), and 100 U/ml penicillin G and 100 ug/ml streptomycin (Sigma Chemical Co.) at […], and in controlled atmosphere (5% CO2), with irinotecan and DDSs of examples 38, 39, 41; the DDS were tested at doses equimolar with those of the reference, in the range 3-30 nM and 0.1-30 μM.
(§2) Cytotoxicity was determined on day 6 (after 5 days treatments) by the MTT test, by measuring cell viability as the cell metabolic capacity to transform the tetrazolium salt of MTT in the blue formazan, by mitochondrial dehydrogenases; the blue colour is read at 570 nm with a spectrophotometer. The following DDSs were tested.

[1] = test system: H460-M2 (lung metastatic carcinoma); assay: Antiproliferative activity, MTT test, H460-M2; details: H460-M2 cells, 5 days treatment, MTT on day 6; read-out: IC50, concentration necessary to reduce the cell growth to 50% of the growth of the control
Protocol: as §1, §2

[2] = test system: HT29 (colon rectal carcinoma); assay: Antiproliferative activity, MTT test, HT29; details: Homo sapiens, HT-29; HT29 cells, 5 days treatment, MTT on day 6; read-out: IC50, concentration necessary to reduce the cell growth to 50% of the growth of the control
Protocol: as §1, §2

IC50 (H460 (lung carcinoma)): 440 nM | IC50 [1]: 460 nM | IC50 [2]: 250 nM
Structure (SMILES): CCc1c2c(nc3ccc(OC(=O)N4CCC(N5CCCCC5)CC4)cc13)-c1cc3c(c(=O)n1C2)COC(=O)[C@]3(O)CC [Irinotecan, irinotecan]
